The source of these data is PMC9958325 (Nature Communications, 2023).

Where “and” joins values, the source holds several entries; their conditions need not be identical. Equal values may be shown once. Where a name gives a salt, the structure may show the parent alone. Read-outs that look alike come from different tables or passages of the source. Marks after values point to notes of the source that are not given here. Peptide text beside a SMILES is read from it. * marks the point of attachment. Cbz = O=C(OCc1ccccc1)*; CH2F = FC* Some results are limits rather than exact numbers.

The subject of one data set is SARS-CoV-2^WK-521. As to the kind of experiment: microbe, parasite or virus in culture. The data set is classed as cell-based. The arrangement: EC95, individual assays / EC95, Average: unit: µM.
Data set [1] is described as follows: Pharmacokinetic study in ICR mice. The following applies: N = 2 to 3 male or female ICR mice; 5h, TKB125 i.v. 2 mg/kg.
A short description of data set [2]: in vitro. The following applies: African green monkey, VeroE6 cells.
Data set [3] can be described thus: in vitro. The following applies: human, HeLa-ACE2-TMPRSS2 cells.
Data set [4] has as its system SARS-CoV-2^WK521 in HeLa-ACE2-TMPRSS2 cells. Briefly: Antiviral assay, HeLa-ACE2-TMPRSS2 cells, WK521. Format: cell-based.
The next data set deals with T1, human cathepsin L (Homo sapiens, UniProt P07711).
T1 construct: purchased abcam ab197012
T1 sequence (P07711 114-333): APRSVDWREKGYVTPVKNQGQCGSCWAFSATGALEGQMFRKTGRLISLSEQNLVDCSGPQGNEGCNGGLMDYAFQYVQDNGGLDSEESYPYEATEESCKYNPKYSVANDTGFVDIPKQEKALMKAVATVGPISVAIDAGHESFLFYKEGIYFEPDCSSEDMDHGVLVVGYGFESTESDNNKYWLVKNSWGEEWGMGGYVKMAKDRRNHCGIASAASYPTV
As to the kind of experiment: Human cathepsin L inhibitor screening assay. Format: biochemical. The following applies: triplicate, listed as Cathepsin L inhibitor/FF-FMK.

Another data set deals with SARS-CoV-2 M^pro/3CL^pro (Severe acute respiratory syndrome coronavirus 2, UniProt P0DTD1). The data set is classed as biochemical. The arrangement: IC95, individual assays / IC95, Average: unit: µM.
The conditions of data set [5]: mouse, in vivo.
Another data set deals with VeroE6 cells. As to the kind of experiment: Intracellular concentrations of compounds (LC/MS), VeroE6 cells. The following applies: Vero, calculated value per cell count.
For the next data set, the system named is HeLa-ACE2-TMPRSS2 cells. As to the kind of experiment: Intracellular concentrations of compounds (LC/MS), HeLa-ACE2-TMPRSS2 cells. The following applies: for intracellular compound, /1x10^6: calculated value per cell count; for intracellular compound, calculated value /20uL: from AUC against pmol standard curve.
The mark [6] stands for this setting: read-out: EC50, individual assays.
The mark [7] stands for this setting: read-out: SARS-CoV2 RNA VeroE6 cell-based assay EC50.
The mark [8] stands for this setting: Severe acute respiratory syndrome coronavirus 2, Vero C1008, read-out: SARS-CoV2 RNA VeroE6 cell-based assay EC50.
The mark [9] stands for this setting: Severe acute respiratory syndrome coronavirus 2, SARS-CoV-2^WK521, read-out: EC50, HeLa-ACE2-TMPRSS2.
[10] abbreviates: Severe acute respiratory syndrome coronavirus 2, read-out: EC50, HeLa-AEC2-TMPRSS2, individual assays, source data.
The mark [11] stands for this setting: Severe acute respiratory syndrome coronavirus 2, source data, read-out: EC50, HeLa-AEC2-TMPRSS2, Average.
Setting [12] is: read-out: EC50, HeLa-AEC2-TMPRSS2, individual assays, source data.
Setting [13] is: FRET, mean ± 1 S.D., read-out: SARS-CoV2 M^pro enzyme assay IC50.
Where [14] appears, read: source data, M^pro enzyme assay.
Where [15] appears, read: source data, M^pro enzyme assay, read-out: IC50, Average.
[16] abbreviates: Hela ACE2 TMPRSS2, drug 10, duplicates.
The mark [17] stands for this setting: Hela ACE2 TMPRSS2, drug 50, duplicates.
Where [18] appears, read: Hela ACE2 TMPRSS2, drug 100, duplicates.

As to `COc1cccc2[nH]c(C(=O)N[C@@H](CC(C)C)C(=O)N[C@@H](C[C@@H]3CCNC3=O)C(=O)c3nc4ccccc4s3)cc12` [Compound 5h, reference compound], in the data set with SARS-CoV-2^WK-521, the “EC95, Average” value is listed as 9.4675; the “EC95, individual assays” value is 9.47 and 9.68 and 9.72 and 9; the “SARS-CoV2 RNA VeroE6 cell-based assay EC95” value came out at 9470 ± 330 nM. For the same compound, the EC50 in the data set with SARS-CoV-2^WK-521 (setting [6]) is 2700 nM and 3200 nM and 2000 nM and 2500 nM. Further, in the data set on SARS-CoV-2^WK-521 (setting [7]), the 50% effective concentration (EC50) was found to be 2600 ± 500 nM. Moreover, the T1/2 in [1] is 0.27§ h.
Regarding `Cn1cnc(Cn2c(=O)[nH]/c(=N\c3cc4cn(C)nc4cc3Cl)n(Cc3cc(F)c(F)cc3F)c2=O)n1` [Ensitrelvir fumarate], the CC50 at 3 days in “in vitro [2]” and in the data set “in vitro [3]” was over 100000 nM throughout. Also, the EC50 in the data set on SARS-CoV-2^WK-521 (Severe acute respiratory syndrome coronavirus 2, Vero C1008, read-out: EC50, Average) was 106 nM; in the data set on SARS-CoV-2^WK-521 (setting [8]), 110 ± 50 nM; with SARS-CoV-2^WK-521 (setting [6]), 45 nM and 127 nM and 156 nM and 98 nM; in data set [4] (setting [9]), 200 ± 30 nM; in data set [4] (setting [10]) it was 211 nM; in [4] (setting [11]) it was 204 nM. The half-maximal effective concentration (EC50) in data set [4] (setting [12]) was 230 nM and 170 nM.
`O=C(NC(Cc1ccccc1)C(=O)NC(Cc1ccccc1)C(=O)CF)OCc1ccccc1` (stereo not drawn) [FF-FMK, reference compound] (Cbz-Phe-Phe-CH2F; configuration not given here): the “% inhibition against human Cathepsin” value on human cathepsin L (0.00106 µM) was 39.8315% and 40.7898% and 42.7898%; on human cathepsin L (0.0053 µM), 58.2277% and 58.5989% and 59.5989%; at human cathepsin L (0.0266 µM), 77.0946% and 80.3037% and 81.3037%; on human cathepsin L (0.6 µM), 98.8112% and 98.8499%; at human cathepsin L (3.3 µM) it was 99.7789% and 99.782%; at human cathepsin L (16.6 µM), 99.9553% and 99.0234% and 100.023%.
For the compound `CC(C)C(=O)OC[C@H]1O[C@@H](n2ccc(NO)nc2=O)[C@H](O)[C@@H]1O` [Molnupiravir], the CC50 at 3 days in “in vitro [2]” and in “in vitro [3]” was over 100000 nM throughout. Moreover, the EC50 in the data set on SARS-CoV-2^WK-521 (Severe acute respiratory syndrome coronavirus 2, Vero C1008, read-out: EC50, individual assays) was 270 nM; with SARS-CoV-2^WK-521 (setting [8]) it was 350 ± 60 nM; in the data set on SARS-CoV-2^WK-521 (setting [6]) it was 330 nM and 380 nM and 420 nM; in data set [4] (setting [9]) it was 320 ± 70 nM; in [4] (setting [10]), 270 nM; in [4] (setting [11]), 323 nM. Also, in data set [4] (setting [12]), the EC50 is 300 nM and 400 nM.
For the compound `COc1ccc(F)c2[nH]c(C(=O)N[C@@H](CC(C)C)C(=O)N[C@@H](C[C@@H]3CCNC3=O)C(=O)c3nc4ccccc4s3)cc12` [TKB125], at SARS-CoV-2 M^pro/3CL^pro (FRET, mean ± 1 S.D.), the “SARS-CoV2 M^pro enzyme assay IC95” value was determined as 1020 ± 400 nM. In addition, the IC50 at SARS-CoV-2 M^pro/3CL^pro (setting [13]) was 34 ± 6 nM; on SARS-CoV-2 M^pro/3CL^pro (setting [15]) it was 34 nM; at SARS-CoV-2 M^pro/3CL^pro (source data, M^pro enzyme assay, read-out: IC50, individual assays) it was 28.2 nM and 39.6 nM and 34.1 nM. Further, the “IC95, Average” value on SARS-CoV-2 M^pro/3CL^pro (setting [14]) came to 1.022. For the same compound, the “IC95, individual assays” value on SARS-CoV-2 M^pro/3CL^pro (setting [14]) was 0.8844 and 1.476 and 0.7048. Also, the “EC95, Average” value with SARS-CoV-2^WK-521 is recorded as 8.3875. In addition, the “EC95, individual assays” value with SARS-CoV-2^WK-521 was 8.28 and 8.91 and 7.98 and 8.38. Also, in the data set on SARS-CoV-2^WK-521, the “SARS-CoV2 RNA VeroE6 cell-based assay EC95” value came to 8390 ± 390 nM. Besides, the EC50 with SARS-CoV-2^WK-521 (read-out: EC50, Average) was 1820 nM; with SARS-CoV-2^WK-521 (setting [6]), 1700 nM and 1510 nM and 3160 nM and 900 nM; in the data set on SARS-CoV-2^WK-521 (setting [7]), 1820 ± 960 nM. Moreover, in data set [1], the T1/2 is reported as 0.76 § h.
Turning to `COc1ccc(F)c2[nH]c(C(=O)N[C@@H](CC(C)C)C(=O)N[C@@H](C[C@@H]3CCNC3=O)C(=O)c3nc4c(F)cccc4s3)cc12` [TKB198], the Cmax in data set [5] is listed as 85 ng/mL. The “Oral F” value in [5] (po) is reported as 1.98§ %. Further, at SARS-CoV-2 M^pro/3CL^pro (FRET, mean ± 1 S.D.), the “SARS-CoV2 M^pro enzyme assay IC95” value was found to be 750 ± 270 nM. The IC50 on SARS-CoV-2 M^pro/3CL^pro (setting [13]) was 23 ± 13 nM; on SARS-CoV-2 M^pro/3CL^pro (source data, M^pro enzyme assay, listed as TKB0198, read-out: IC50, individual assays) it was 36 nM and 10.1 nM; on SARS-CoV-2 M^pro/3CL^pro (setting [15]) it was 23 nM. Besides, the “IC95, Average” value against SARS-CoV-2 M^pro/3CL^pro (setting [14]) worked out at 0.7533. The “IC95, individual assays” value on SARS-CoV-2 M^pro/3CL^pro (source data, M^pro enzyme assay, listed as TKB0198) was 1.0700 and 0.6000 and 0.5900. In addition, the “EC95, Average” value in the data set on SARS-CoV-2^WK-521 is 0.834. For the same compound, in the data set on SARS-CoV-2^WK-521, the “EC95, individual assays” value is 0.856 and 0.86 and 0.8 and 0.82. Besides, the “Improvement of EC50 and EC95 values relative to TKB125” value in the data set on SARS-CoV-2^WK-521 is recorded as “about 10 fold”. Moreover, the “SARS-CoV2 RNA VeroE6 cell-based assay EC95” value in the data set on SARS-CoV-2^WK-521 stood at 830 ± 30 nM. Besides, the EC50 is 272 nM with SARS-CoV-2^WK-521 (read-out: EC50, Average); 130 nM and 300 nM and 400 nM and 260 nM in the data set with SARS-CoV-2^WK-521 (setting [6]); 270 ± 110 nM with SARS-CoV-2^WK-521 (setting [7]). Moreover, in data set [1], the T1/2 is given as 0.83 § h.
Consider `CC(C)(C)C(NC(=O)C(F)(F)F)C(=O)N1CC2C(C1C(=O)NC(CC1CCNC1=O)C(=O)c1nc3c(F)cccc3s1)C2(C)C` (stereo not shown) [TKB0245A], for which the “intracellular compound, /1x10^6” value was 0.09213 /1x10^6 and 0.09745 /1x10^6 with VeroE6 cells (drug 10, duplicates); 0.9321 /1x10^6 and 0.7861 /1x10^6 in the data set on VeroE6 cells (drug 100, duplicates); 0.2544 /1x10^6 and 0.228 /1x10^6 in the data set on HeLa-ACE2-TMPRSS2 cells (setting [16]); 1.834 /1x10^6 and 1.4997 /1x10^6 in the data set on HeLa-ACE2-TMPRSS2 cells (setting [17]); 3.325 /1x10^6 and 3.755 /1x10^6 in the data set with HeLa-ACE2-TMPRSS2 cells (setting [18]). The “intracellular compound, pmol(total)” value is 0.636 pmol and 0.5701 pmol with HeLa-ACE2-TMPRSS2 cells (setting [16]); 4.585 pmol and 3.749 pmol with HeLa-ACE2-TMPRSS2 cells (setting [17]); 8.312 pmol and 9.388 pmol with HeLa-ACE2-TMPRSS2 cells (setting [18]). The “intracellular compound, calculated value /20uL” value in the data set with HeLa-ACE2-TMPRSS2 cells (setting [16]) was 0.59 /20uL and 0.50 /20uL; with HeLa-ACE2-TMPRSS2 cells (setting [17]) it was 4.77 /20uL and 3.30 /20uL; in the data set on HeLa-ACE2-TMPRSS2 cells (setting [18]), 6.65 /20uL and 9.39 /20uL.
